# Measured values from PMC10141604, “Small-Molecule Inhibition of Androgen Receptor Dimerization as a Strategy against Prostate Cancer” (ACS Central Science, 2023).
# What was measured:
# MR = molecular target: T1, MR (Homo sapiens, UniProt P08235); experiment: Luciferase reporter assay for MR (HEK293T cells); type: cell-based; settings: 0.4–10 μM, 5 nM aldosterone
# T1 construct: host or cells: HEK293T
# T1 sequence (P08235 1-984): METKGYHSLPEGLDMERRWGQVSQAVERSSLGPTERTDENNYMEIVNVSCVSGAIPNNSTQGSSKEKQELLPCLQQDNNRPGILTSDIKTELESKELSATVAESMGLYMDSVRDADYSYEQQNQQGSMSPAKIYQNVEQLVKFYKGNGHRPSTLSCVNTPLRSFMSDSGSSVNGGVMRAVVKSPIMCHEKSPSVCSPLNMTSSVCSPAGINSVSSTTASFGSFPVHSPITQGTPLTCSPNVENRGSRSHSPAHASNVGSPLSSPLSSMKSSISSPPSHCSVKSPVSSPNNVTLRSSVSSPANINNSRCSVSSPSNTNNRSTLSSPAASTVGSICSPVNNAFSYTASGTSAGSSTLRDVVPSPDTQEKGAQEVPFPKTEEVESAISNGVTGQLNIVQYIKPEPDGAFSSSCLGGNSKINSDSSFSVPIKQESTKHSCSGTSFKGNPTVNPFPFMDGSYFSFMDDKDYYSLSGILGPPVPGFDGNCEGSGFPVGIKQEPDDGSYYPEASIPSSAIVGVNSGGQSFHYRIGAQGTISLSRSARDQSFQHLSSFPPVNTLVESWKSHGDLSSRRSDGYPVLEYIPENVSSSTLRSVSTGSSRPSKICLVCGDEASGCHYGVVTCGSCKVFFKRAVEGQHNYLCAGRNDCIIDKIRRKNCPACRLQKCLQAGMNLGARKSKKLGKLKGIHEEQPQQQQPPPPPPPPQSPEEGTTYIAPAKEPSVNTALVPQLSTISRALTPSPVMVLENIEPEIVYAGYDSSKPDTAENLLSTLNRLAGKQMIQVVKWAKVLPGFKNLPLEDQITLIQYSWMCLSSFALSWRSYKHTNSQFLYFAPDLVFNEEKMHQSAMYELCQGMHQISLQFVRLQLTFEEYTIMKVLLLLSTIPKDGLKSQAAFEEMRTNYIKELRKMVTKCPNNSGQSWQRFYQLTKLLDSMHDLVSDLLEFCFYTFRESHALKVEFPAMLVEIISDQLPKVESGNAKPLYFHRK
# Protocol: (§1) Luciferase Reporter Assays for PR, GR, and MR
# (§2) PC3, HeLa, and HEK293T cells were cultured using 5% CSS RPMI-1640, 5% CSS RPMI-1640 and 10% FBS DMEM media in 96-well plates for 24 h, respectively. For PR induction, PC3 (1 × 10^4 cells/well) were transfected with 50 ng pcDNA3-PRB (#89130, Addgene), 24 ng pGL4.36[luc2P MMTV Hygro] (Promega) and 5 ng Renilla using HG-TransGeneTM transfection reagent (#TG-10012, Genomeditech) for 4 h. For GR induction, Hela (1 × 10^4 cells/well) were transfected with 71 ng pCMV -GR11 (#89105, Addgene), 24 ng pGL4.36[luc2P MMTV Hygro] (Promega) and 5 ng Renilla using lip3000 transfection reagent (#L3000075, Thermofisher) for 24 h. For MR induction, HEK293T (1 × 10^4 cells/well) were transfected with 71 ng pCMV-MR gifted by Liu et al. 28, 24 ng of pGL4.36[luc2P MMTV Hygro] (Promega) and 5 ng Renilla using lip3000 transfec tion reagent for 24 h. For the antagonistic models, 10 nM /well progesterone for PC3 cells , 1 nM/well dexamethasone for HeLa, and 5 nM/well aldosterone for HEK293T cells were added to stimulate the cells. Meanwhile, each cell line was treated with a series concentration of compounds (0.4, 2, and 10 μM). For the agonistic models, the cells were directly treated with the compounds without any hormones. Endogenous hormones progesterone, dexamethasone, and aldosterone were considered as agonists for PR, GR, and MR, respectively. The luciferase activities were assessed using the Dual-Glo Luciferase system (#E1910, Promega). […]
# GR = molecular target: T2, GR (Homo sapiens, UniProt P04150); experiment: Luciferase reporter assay for GR (HeLa cells); type: cell-based; settings: 0.4 μM, 1 nM dexamethasone
# T2 construct: host or cells: HeLa
# T2 sequence (P04150 1-777): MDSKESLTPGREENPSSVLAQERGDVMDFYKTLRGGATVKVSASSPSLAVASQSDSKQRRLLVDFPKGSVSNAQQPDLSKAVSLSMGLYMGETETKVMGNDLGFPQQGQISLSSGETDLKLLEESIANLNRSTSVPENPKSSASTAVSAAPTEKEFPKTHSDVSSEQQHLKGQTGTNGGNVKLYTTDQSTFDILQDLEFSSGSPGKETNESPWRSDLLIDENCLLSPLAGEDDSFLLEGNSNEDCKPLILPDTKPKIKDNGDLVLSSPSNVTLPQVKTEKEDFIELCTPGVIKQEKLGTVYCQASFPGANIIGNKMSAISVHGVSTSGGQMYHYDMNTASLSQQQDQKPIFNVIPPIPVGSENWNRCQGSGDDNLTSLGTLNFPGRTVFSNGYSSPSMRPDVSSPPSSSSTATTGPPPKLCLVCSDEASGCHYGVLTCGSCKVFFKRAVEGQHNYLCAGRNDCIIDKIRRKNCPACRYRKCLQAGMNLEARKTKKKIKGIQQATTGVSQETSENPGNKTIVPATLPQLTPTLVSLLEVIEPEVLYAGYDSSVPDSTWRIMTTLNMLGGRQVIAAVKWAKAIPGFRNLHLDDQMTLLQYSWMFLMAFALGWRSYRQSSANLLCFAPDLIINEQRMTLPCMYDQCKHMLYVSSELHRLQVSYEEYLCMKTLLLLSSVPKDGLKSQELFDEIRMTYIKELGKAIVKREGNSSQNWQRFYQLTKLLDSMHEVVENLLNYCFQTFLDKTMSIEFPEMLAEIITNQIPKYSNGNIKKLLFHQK
# Protocol: calculating volume (V= 0.5 × L × W2). Finally, the mice were sacrificed and the tumors were harvested for hematoxylin and eosin (H&E) staining.
# as §1
# Addgene), 24 ng pGL4.36[luc2P MMTV Hygro] (Promega) and 5 ng Renilla using HG- […]
# Addgene), 24 ng pGL4.36[luc2P MMTV Hygro] (Promega) and 5 ng Renilla using lip3000 transfection reagent (#L3000075, Thermofisher) for 24 h. For MR induction, HEK293T (1 × 10^4 cells/well) were transfected with 71 ng pCMV-MR gifted by Liu et al. 28, 24 ng of pGL4.36[luc2P MMTV Hygro] (Promega) and 5 ng Renilla using lip3000 transfec tion reagent for 24 h. For the antagonistic models, 10 nM /well progesterone for PC3 cells , 1 nM/well dexamethasone for HeLa, and 5 nM/well aldosterone for HEK293T cells were added to stimulate the cells. Meanwhile, each cell line was treated […]
# For the agonistic models, the cells were directly treated with the compounds without any hormones. […]
# hormones progesterone, dexamethasone, and aldosterone were considered as agonists for PR, GR, and MR, respectively. The luciferase activities were assessed using the Dual-Glo Luciferase system (#E1910, Promega).
# Cell Cycle and Apoptosis for LNCaP cells
# LNCaP were cultured in 6-well plate with 5× 10^5 cells/well, after incubated at 37 °C for […]
# Cell cycle were determined after 48 h incubation by Cell Cycle Staining Kit (#CCS012, MULTI SCIENCES) using […]
# PR = molecular target: T3, PR (Homo sapiens, UniProt P06401); experiment: Luciferase reporter assay for PR (PC3 cells); type: cell-based; settings: 0.4 μM, 10 nM progesterone
# T3 construct: host or cells: PC3
# T3 sequence (P06401 1-933): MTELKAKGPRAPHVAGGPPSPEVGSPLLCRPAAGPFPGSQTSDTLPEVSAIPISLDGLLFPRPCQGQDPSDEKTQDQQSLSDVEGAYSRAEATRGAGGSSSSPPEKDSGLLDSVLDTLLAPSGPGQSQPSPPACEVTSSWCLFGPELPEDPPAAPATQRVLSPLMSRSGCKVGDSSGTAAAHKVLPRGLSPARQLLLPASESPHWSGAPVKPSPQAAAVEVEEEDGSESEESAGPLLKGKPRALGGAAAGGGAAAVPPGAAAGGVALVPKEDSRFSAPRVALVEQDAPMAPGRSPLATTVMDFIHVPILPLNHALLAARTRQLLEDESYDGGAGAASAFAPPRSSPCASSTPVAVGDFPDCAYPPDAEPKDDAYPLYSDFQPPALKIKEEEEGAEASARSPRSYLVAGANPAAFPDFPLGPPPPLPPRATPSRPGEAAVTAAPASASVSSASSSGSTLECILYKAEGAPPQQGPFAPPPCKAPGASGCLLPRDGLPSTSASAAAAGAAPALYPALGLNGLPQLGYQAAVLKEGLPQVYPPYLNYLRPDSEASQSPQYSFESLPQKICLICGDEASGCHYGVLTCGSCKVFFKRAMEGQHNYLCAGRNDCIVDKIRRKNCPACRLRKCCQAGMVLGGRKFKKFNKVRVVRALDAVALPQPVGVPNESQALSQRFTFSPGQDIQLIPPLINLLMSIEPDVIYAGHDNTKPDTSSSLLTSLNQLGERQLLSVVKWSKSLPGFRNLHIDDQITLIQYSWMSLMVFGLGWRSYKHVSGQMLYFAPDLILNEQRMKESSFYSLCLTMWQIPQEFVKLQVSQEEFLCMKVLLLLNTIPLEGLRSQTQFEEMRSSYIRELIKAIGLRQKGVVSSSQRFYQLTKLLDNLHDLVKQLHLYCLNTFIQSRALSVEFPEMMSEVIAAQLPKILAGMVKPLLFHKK
# Protocol: as §1, §2
# [1] = molecular target: wild type androgen receptor ligand-binding domain (AR LBD) (human); experiment: cross-linking + other: SAXS; chemical cross-linking coupled with mass spectrometry (CXMS) of purified AR LBD; ensemble refinement against the cross-link restraints; dimer to monomer ratio fitted; with and without M17-B15
molecule,measurement,setting,value
CC(=O)S[C@@H]1CC2=CC(=O)CC[C@]2(C)[C@H]2CC[C@@]3(C)[C@@H](CC[C@@]34CCC(=O)O4)[C@H]12 [abbolactone],MR antagonistic activity,MR,potent
CC#C[C@]1(O)CC[C@H]2[C@@H]3CCC4=CC(=O)CCC4=C3[C@@H](c3ccc(N(C)C)cc3)C[C@@]21C [mifepristone],GR antagonistic activity,GR,> 90%
same,PR antagonistic activity,PR,> 90%
wild type androgen receptor ligand-binding domain (AR LBD) (domain or fragment),proportion of the dimer (with M17-B15),[1],15%
same,proportion of the dimer (without M17-B15),[1],20%
